The source of these data is ChEMBL document CHEMBL1153180, “Discovery and initial optimization of 5,5'-disubstituted aminohydantoins as potent beta-secretase (BACE1) inhibitors” (Bioorg Med Chem Lett, 2010).

Data set [1] addresses T1, Beta-secretase 1 (Homo sapiens, UniProt P56817). The experiment in a line: Inhibition of human BACE1 by FRET assay.
The next data set deals with T2, Beta-secretase 2 (Homo sapiens, UniProt Q9Y5Z0).
T2 sequence (Q9Y5Z0 whole entry): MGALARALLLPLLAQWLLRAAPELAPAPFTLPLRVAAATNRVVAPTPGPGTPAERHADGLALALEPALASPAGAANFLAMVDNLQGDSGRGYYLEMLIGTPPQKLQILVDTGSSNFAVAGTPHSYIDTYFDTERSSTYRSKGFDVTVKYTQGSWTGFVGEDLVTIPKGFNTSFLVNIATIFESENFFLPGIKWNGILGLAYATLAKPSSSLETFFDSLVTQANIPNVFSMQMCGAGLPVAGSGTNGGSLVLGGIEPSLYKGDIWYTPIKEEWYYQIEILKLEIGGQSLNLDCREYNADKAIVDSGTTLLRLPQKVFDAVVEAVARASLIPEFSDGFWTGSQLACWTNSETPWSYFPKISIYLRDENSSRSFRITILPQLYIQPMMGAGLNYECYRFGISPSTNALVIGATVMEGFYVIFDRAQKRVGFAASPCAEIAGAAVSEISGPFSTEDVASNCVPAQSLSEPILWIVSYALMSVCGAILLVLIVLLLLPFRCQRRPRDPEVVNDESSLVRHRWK
Kind of data set: Inhibition of human BACE2 by FRET assay.

For data set [2], the target named is Beta-secretase 1 (Cricetulus griseus, UniProt G3IAK4). The experiment in a line: Inhibition of human recombinant APP expressed in CHO-K1 cells assessed as reduction of amyloid beta level by ELISA. It is filed as cell-based. In general terms: ELISA stands for enzyme-linked immunosorbent assay.
Chain of Beta-secretase 1 (Cricetulus griseus, UniProt G3IAK4) (G3IAK4 whole entry): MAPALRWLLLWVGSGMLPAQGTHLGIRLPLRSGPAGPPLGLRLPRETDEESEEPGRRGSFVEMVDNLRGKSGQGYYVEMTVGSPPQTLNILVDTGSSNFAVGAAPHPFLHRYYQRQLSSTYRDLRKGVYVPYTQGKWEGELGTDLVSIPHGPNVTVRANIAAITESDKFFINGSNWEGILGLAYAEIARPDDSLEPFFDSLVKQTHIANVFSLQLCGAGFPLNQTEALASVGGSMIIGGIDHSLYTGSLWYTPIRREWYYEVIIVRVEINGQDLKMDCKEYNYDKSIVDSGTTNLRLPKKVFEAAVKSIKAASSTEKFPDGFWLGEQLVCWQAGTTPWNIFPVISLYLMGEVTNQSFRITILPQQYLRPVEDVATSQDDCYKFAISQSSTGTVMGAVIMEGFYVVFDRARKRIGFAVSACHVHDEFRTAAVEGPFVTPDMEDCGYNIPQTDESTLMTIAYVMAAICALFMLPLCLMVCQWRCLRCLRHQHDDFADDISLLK
Data set [3] deals with T3, Cathepsin D (Homo sapiens, UniProt P07339). Kind of data set: Inhibition of human cathepsin D by FRET assay.
T3 sequence (P07339 65-162 limits assumed): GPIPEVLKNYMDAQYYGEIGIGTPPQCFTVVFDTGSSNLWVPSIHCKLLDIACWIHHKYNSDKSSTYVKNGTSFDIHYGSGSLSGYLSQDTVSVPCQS
T3 sequence (P07339 169-412 limits assumed): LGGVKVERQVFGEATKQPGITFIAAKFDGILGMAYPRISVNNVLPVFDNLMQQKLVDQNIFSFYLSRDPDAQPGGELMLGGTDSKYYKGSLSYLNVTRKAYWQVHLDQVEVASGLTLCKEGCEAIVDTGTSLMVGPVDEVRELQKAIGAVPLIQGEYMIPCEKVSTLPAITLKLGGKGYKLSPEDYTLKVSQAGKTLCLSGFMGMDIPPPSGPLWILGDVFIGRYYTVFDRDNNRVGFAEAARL
The target of data set [4] is T3, Cathepsin D. Kind of data set: Inhibition of human cathepsin D at 100 uM by FRET assay.
Data set [5] can be described thus: Membrane permeability by PAMPA. Format: ADME. The following applies: read-out: permeability. (In general: PAMPA measures passive passage across an artificial lipid membrane.)
Data set [6] is described as follows: Membrane permeability by PAMPA-BBB assay. It is filed as ADME. The following applies: read-out: permeability.
The nature of data set [7]: Solubility at pH 7.4. The following applies: buffer. Format: physicochemical.
The target in data set [8] is T1, Beta-secretase 1. Kind of data set: Inhibition of human BACE1 at 5 uM by FRET assay.

pEC50, pIC50: −log10 of the molar value. Converted amounts (≈) assume the structure as drawn. Some results are limits rather than exact numbers.

T1 sequence (P56817 whole entry): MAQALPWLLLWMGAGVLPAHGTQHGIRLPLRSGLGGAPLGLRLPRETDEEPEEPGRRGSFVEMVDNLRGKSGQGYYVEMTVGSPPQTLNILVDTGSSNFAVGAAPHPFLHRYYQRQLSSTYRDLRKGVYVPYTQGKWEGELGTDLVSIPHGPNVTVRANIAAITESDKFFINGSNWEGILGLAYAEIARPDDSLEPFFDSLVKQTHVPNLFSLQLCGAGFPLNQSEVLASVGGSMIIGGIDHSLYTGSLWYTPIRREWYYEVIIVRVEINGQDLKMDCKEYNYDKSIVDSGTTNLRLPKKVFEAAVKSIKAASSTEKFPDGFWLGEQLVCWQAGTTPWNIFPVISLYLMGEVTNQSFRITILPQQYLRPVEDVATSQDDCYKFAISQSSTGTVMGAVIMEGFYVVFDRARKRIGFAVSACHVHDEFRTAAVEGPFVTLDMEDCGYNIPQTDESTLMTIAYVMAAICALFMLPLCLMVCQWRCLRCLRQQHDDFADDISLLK

In general, pIC50 refers to the IC50 on a negative log10 scale, so that one unit is a factor of ten. The low end stands for a large IC50, the high end for a small IC50. Usually pEC50 stands for −log10 of the EC50, conventionally taken in molar units. A word on the inhibition: it is the drop in the measured response relative to a control, in per cent. A high value points to strong suppression. For orientation: solubility means the concentration that dissolves in the medium under given conditions. `CN1C(=O)C(c2ccccc2)(C2CCCCC2)N=C1N` (stereo not drawn): the figures for the pIC50 against Beta-secretase 1 [1], on Beta-secretase 2 and against Cathepsin D [3] were 6.00, 6.29 and 4.62, respectively. Further, the pEC50 at Beta-secretase 1 [2] is 6.09. At Cathepsin D [4], the inhibition was 38%. The values for the Papp in data set [5] and in [6] were 7.2 ×10⁻⁶ cm/s and 12.8 ×10⁻⁶ cm/s, respectively. Further, the solubility in data set [7] is above 100 µg/mL.

Turning to `CN1C(=O)C(c2cccc(NC(=O)c3cccn3C)c2)(C2CCCCC2)N=C1N` (stereo not drawn), the negative-log IC50 (pIC50) on Beta-secretase 2 was 6.74.

Consider `CCCCCCN1C(=O)C(c2ccccc2)(C2CCCCC2)N=C1N` (stereo not drawn), for which the negative logarithm of the IC50 (pIC50) at Beta-secretase 1 [1] was 5.86; against Beta-secretase 2, 6.57.

In the case of `Cc1ccoc1C(=O)Nc1cccc(C2(C3CCCCC3)N=C(N)N(C)C2=O)c1` (stereo not drawn), the pIC50 is 7.52 on Beta-secretase 2 and 4.77 on Cathepsin D [3]. The pEC50 on Beta-secretase 1 [2] was 6.74. Besides, the Papp came out at 1.4 ×10⁻⁶ cm/s in [5] and 13.7 ×10⁻⁶ cm/s in data set [6]. Further, the solubility in [7] was 41 µg/mL (≈ 104 µM).

On to `NC1=NC(c2ccccc2)(C2CCCCC2)C(=O)N1CCCCCC(=O)O` (stereo not drawn), for which the pIC50 at Beta-secretase 1 [1] is 6.02; at Beta-secretase 2, 6.51.

Take `NC1=NC(c2ccccc2)(C2CCCCC2)C(=O)N1Cc1cc(F)cc(F)c1` (stereo not drawn): the pIC50 was 5.97 on Beta-secretase 1 [1] and 6.39 against Beta-secretase 2.

As to `NC1=NC(c2ccccc2)(C2CCCCC2)C(=O)N1Cc1ccccc1` (stereo not drawn), the pIC50 against Beta-secretase 1 [1] is 5.91; on Beta-secretase 2 it was 6.24.

`COc1cccc(C(=O)Nc2cccc(C3(C4CCCCC4)N=C(N)N(C)C3=O)c2)c1` (stereo not drawn): the pIC50 on Beta-secretase 1 [1] was 5.87; against Beta-secretase 2, 6.31.

`CCCC(=O)Nc1cccc(C2(C3CCCCC3)N=C(N)N(C)C2=O)c1` (stereo not drawn): the pIC50 on Beta-secretase 1 [1] is 5.55; against Beta-secretase 2 it was 6.31.

With `CN1C(=O)C(C2CCCCC2)(C2CCCCC2)N=C1N`, the values for the pIC50 at Beta-secretase 1 [1] and against Beta-secretase 2 were 5.97 and 6.29, respectively. Also, the pEC50 on Beta-secretase 1 [2] was 5.99. Further, the inhibition against Cathepsin D [4] amounted to 33%. Moreover, the Papp in data set [5] was determined as 2.9 ×10⁻⁶ cm/s; in data set [6], 7.7 ×10⁻⁶ cm/s. Moreover, the solubility in [7] was above 100 µg/mL.

On to `NC1=NC(c2ccccc2)(C2CCCCC2)C(=O)N1C[C@H]1CC[C@H](C(=O)O)CC1` (stereo partly drawn), for which the pIC50 on Beta-secretase 1 [1] is 6.41; against Beta-secretase 2, 6.92.

In the case of `CN1C(=O)C(c2ccccc2)(c2ccccc2)N=C1N`, on Beta-secretase 2, the pIC50 is 6.11. Also, the pEC50 on Beta-secretase 1 [2] is 5.38. This compound yielded an inhibition on Cathepsin D [4] of 34%. The figures for the Papp in [5] and in data set [6] were 3 ×10⁻⁶ cm/s and 11.1 ×10⁻⁶ cm/s, respectively. This compound also displayed a solubility in data set [7] above 100 µg/mL.

As for `CN1C(=O)C(c2cccc(NC(=O)c3ccc4c(c3)OCO4)c2)(C2CCCCC2)N=C1N` (stereo not drawn), the negative logarithm of the IC50 (pIC50) at Beta-secretase 1 [1] was 6.42; on Beta-secretase 2 it was 5.94.

`NC1=NC(c2ccccc2)(C2CCCCC2)C(=O)N1CCCO` (stereo not drawn): on Beta-secretase 2, the pIC50 was 5.78. Moreover, on Beta-secretase 1 [8], the inhibition was 56%.

On to `NC1=NC(c2ccccc2)(c2ccccc2)C2=NCCCN12`, for which, at Beta-secretase 1 [2], the pEC50 is 4.80. Further, the inhibition on Cathepsin D [4] came to 2%. Further, the results for the Papp in [5] and in data set [6] were 1 ×10⁻⁶ cm/s and 8.6 ×10⁻⁶ cm/s, respectively. This compound yielded a solubility in [7] of 55 µg/mL (≈ 189 µM).

`COCCC(=O)Nc1cccc(C2(C3CCCCC3)N=C(N)N(C)C2=O)c1` (stereo not drawn): the figures for the pIC50 at Beta-secretase 1 [1] and against Beta-secretase 2 were 5.10 and 5.73, respectively.

In turn, `COCC(=O)Nc1cccc(C2(C3CCCCC3)N=C(N)N(C)C2=O)c1` (stereo not drawn) had a pIC50 on Beta-secretase 2 of 7.40.

For `NC1=NC(c2ccccc2)(C2CCCCC2)C(=O)N1CC1CCCO1` (stereo not drawn), the pIC50 was 5.98 on Beta-secretase 1 [1] and 6.77 against Beta-secretase 2.

For `CN1C(=O)C(c2cccc(NC(=O)c3ccco3)c2)(C2CCCCC2)N=C1N` (stereo not drawn), the pIC50 is 7.00 against Beta-secretase 1 [1] and 7.70 against Beta-secretase 2.
